In PubChem BioAssay (NCI) one finds TGI and GI50 data, which are given here for 26 molecules.

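Assay format: 96-well plates, 48-hour exposure. The concentration for 50% growth inhibition is given as GI50. At the TGI there is no net growth.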

Common to all, as to assay: growth of human tumour cells (NCI), 48 h
Experiment [1] relates to U251 CNS.
In experiment [2] the test system is RPMI-8226 leukemia.
In experiment [3] the test system is UACC-257 melanoma.
The test system of experiment [4] is 786-0 renal.
For experiment [5], the system named is TK-10 renal.
Experiment [6] relates to SK-MEL-5 melanoma.
In experiment [7] the test system is HCC-2998 colon.
Experiment [8] deals with OVCAR-5 ovarian.
In experiment [9] the test system is MCF7 breast.
In experiment [10] the test system is SR leukemia.

As to `O=C1OC(=O)c2c1c(-c1ccccc1)nc1ccccc21`, the TGI in [1], in [2], in experiment [3], in [4], in experiment [5] and in experiment [6] was > 100 µM in each case. Further, the TGI in experiment [7] is > 100 µM.
On to `O=c1c2cc(F)ccc2sc2c(NCCCNCCO)nc3ccccc3c12`, for which the GI50 in experiment [8] is 1.61 µM; in [2], 2.08 µM; in experiment [3], 1.98 µM; in experiment [4], 1.53 µM; in experiment [5], 1.89 µM; in experiment [6] it was 1.76 µM. For the same molecule, the figures for the GI50 in experiment [9] and in experiment [7] were 1.41 µM and 1.69 µM, respectively. Also, the TGI in experiment [8] was 3.05 µM; in experiment [2], 4.63 µM; in experiment [3], 3.94 µM; in [4], 3.07 µM; in experiment [5] it was 3.53 µM; in experiment [6], 3.2 µM. The TGI amounted to 2.94 µM in experiment [9] and 3.34 µM in experiment [7].
Consider `O=C(NCCNCCO)c1cccc2ccc(-c3ccccc3)nc12`, for which the TGI in experiment [8] was found to be 18.2 µM; in experiment [1], 17.4 µM; in experiment [3], 14.2 µM; in [4], 19.6 µM; in experiment [5], 6.72 µM; in [6] it was 12.5 µM. In [7], this molecule displayed a TGI of 17.1 µM.
For `CC(C)(C)c1cc2nc(c1)C(C(F)(F)F)(C(F)(F)F)OB(Br)OC2(C(F)(F)F)C(F)(F)F`, the TGI in experiment [8] worked out at 8.39 µM; in experiment [1], 1.37 µM; in experiment [2], 3.76 µM; in experiment [3], 0.188 µM; in experiment [4], 1.81 µM; in [5], 5.5 µM. In experiment [7], this molecule displayed a TGI of 11.4 µM.
Regarding `Fc1cccc(F)c1C(Nc1nncs1)Nc1nncs1`, the TGI in experiment [8], in experiment [1], in experiment [2], in experiment [3], in [4] and in experiment [5] was > 100 µM throughout. The TGI in experiment [6], in [9] and in [7] was > 100 µM in each case.
`CCOc1ccc(NC(=O)CCc2nnc(SC)o2)cc1`: the TGI in experiment [8], in experiment [1], in experiment [3], in experiment [4], in [10] and in experiment [5] was > 100 µM throughout. In addition, the TGI in [6] and in experiment [7] was > 100 µM in each case.
Consider `Cc1cc2c(c(C(N)=O)c1C)-c1cc(Cl)cc(Cl)c1C2=O`, for which the TGI in [8], in experiment [1], in [2], in [3], in [4] and in experiment [5] was > 100 µM in each case. Also, in experiment [7], the TGI is > 100 µM.
Turning to `Cc1cccc(NC(=O)/C(=N\N)C(c2cnc3ccc([N+](=O)[O-])cc3n2)[N+](=O)[O-])c1C` (centres undefined), the TGI in experiment [3], in experiment [4], in experiment [10], in [5], in [6] and in experiment [7] was > 100 µM throughout.
Turning to `O=C(/C=C/c1ccc(Cl)c(Cl)c1)c1cccc2ccccc12`, the TGI in experiment [8] worked out at 26.9 µM; in experiment [1], 6.89 µM; in [2] it was 8.53 µM; in [3], 29.5 µM; in [4], 13.2 µM; in experiment [5], 30.5 µM. In addition, the TGI in experiment [6] is 34.7 µM; in experiment [7], 22.4 µM.
In the case of `CSc1ccc(C2=NN(C(C)=O)C(c3ccc(-c4ccc(Cl)cc4)o3)C2)cc1` (centres undefined), the GI50 in [8] is > 100 µM; in experiment [1], 31.3 µM; in experiment [2], 23.8 µM; in experiment [3], 77 µM; in experiment [4], 38.8 µM; in [5], 37.3 µM. In addition, the values for the GI50 in [6], in [9] and in [7] were 29.1 µM, 39.9 µM and 47.1 µM, respectively. Also, the TGI in experiment [8], in [1], in [2], in experiment [3], in [4] and in experiment [5] was > 100 µM in each case. Also, the TGI in experiment [6], in experiment [9] and in [7] was > 100 µM each time.
Regarding `C/C(=N\O)c1cccc(Nc2cc(-n3ccnc3)c3ccccc3n2)c1`, the GI50 was 20.9 µM in [8]; 12.4 µM in experiment [1]; 21.2 µM in [2]; 12.2 µM in [4]; 15.6 µM in experiment [5]; 13.9 µM in experiment [6]. For the same molecule, the figures for the GI50 in [9] and in experiment [7] were > 100 µM and 17.3 µM, respectively. Besides, the TGI in [8] is 40.9 µM; in experiment [1], 28.7 µM; in [2] it was > 100 µM; in experiment [4], 28.7 µM; in experiment [5], 38.8 µM; in experiment [6], 27.2 µM. For the same molecule, the TGI in experiment [9] was > 100 µM; in experiment [7] it was 31.7 µM.
With `COc1ccc(-c2cc(=O)c3c(O)cccc3o2)c(OC)c1OC`, the TGI in [8], in experiment [1], in experiment [2], in [3], in experiment [4] and in experiment [5] was > 100 µM throughout. Also, the TGI in experiment [6] and in [7] was > 100 µM each time.
Regarding `O=C(O)CCNS(=O)(=O)c1ccc([N+](=O)[O-])cc1`, the TGI in [8], in [1], in experiment [2], in experiment [3], in [4] and in [5] was > 100 µM in each case. The TGI in experiment [6] and in experiment [7] was > 100 µM in each case.
On to `Cc1ccccc1-n1c(N)c(-c2nc3ccccc3[nH]2)sc1=S`, for which the TGI in experiment [8] was > 100 µM; in experiment [2], 62.2 µM; in experiment [3], 36.6 µM; in experiment [4] it was 81.3 µM; in experiment [5], 85.8 µM; in [6] it was 36.6 µM. In [7], this molecule yielded a TGI of 34.8 µM.
For `CC1=C(C(=O)Nc2ccc(Cl)c(Cl)c2)C(c2ccc([N+](=O)[O-])cc2)C(C(=O)Nc2ccc(Cl)c(Cl)c2)=C(C)N1`, the TGI in [8] amounted to 10 µM; in experiment [1], 11.5 µM; in experiment [2] it was 8.63 µM; in experiment [3], 7.84 µM; in experiment [4], 11.1 µM; in [5] it was 55 µM. The TGI in experiment [6] came to 3.39 µM; in experiment [7], 4.98 µM.
In the case of `CCOC(=O)c1cc2c(cc1Cl)SC(=Nc1ccccc1)N(S(=O)(=O)c1ccc(Br)s1)S2(=O)=O`, the GI50 in experiment [8] is 22 µM; in experiment [1] it was 11.7 µM; in [2] it was 12.1 µM; in experiment [3], 13.5 µM; in experiment [4], 17.5 µM; in [5], 15.9 µM. The values for the GI50 in [6], in experiment [9] and in [7] were 12.1 µM, 16.5 µM and 16.7 µM, respectively. Also, the TGI in [8] stood at 50.8 µM; in experiment [1], 25.8 µM; in [2] it was 41.9 µM; in experiment [3], 30.4 µM; in [4], 32.6 µM; in [5], 30.4 µM. Moreover, the TGI in experiment [6] is 25.2 µM; in experiment [9], 45.8 µM; in experiment [7] it was 31.6 µM.
Consider `c1cc(N2CCN(c3ccc(C4=NCCCN4)cc3)CC2)ccc1C1=NCCCN1`, for which the GI50 is > 87.8 µM in experiment [8]; > 74.6 µM in experiment [1]; 23.8 µM in experiment [2]; 99 µM in [3]; > 100 µM in [4]; > 69.4 µM in experiment [5]. Further, the GI50 in experiment [6] was 21.2 µM; in experiment [9], > 57.5 µM. Besides, the TGI in experiment [8], in [1], in experiment [2], in [3], in [4] and in experiment [5] was > 100 µM each time. Also, the TGI was > 100 µM in [6], > 100 µM in [9] and > 45.2 µM in [7].
Take `N#CNc1nc(N)c(-c2ccc(Cl)cc2)c(C(=O)Nc2nccs2)n1`: the TGI in [8], in experiment [1], in experiment [2], in experiment [3], in experiment [4] and in experiment [5] was > 100 µM each time. Further, the TGI in [6] and in experiment [7] was > 100 µM in each case.
As to `O=C(Cc1nc2ccccc2o1)C(=O)Nc1cccc(C(F)(F)F)c1`, the TGI in experiment [8], in experiment [1], in experiment [2], in [3], in experiment [4] and in experiment [5] was > 100 µM throughout. In addition, the TGI in experiment [6] and in experiment [7] was > 100 µM throughout.
Consider `Cn1ccnc1Oc1ccc(Cl)cc1`, for which the TGI in experiment [8] came out at 35.7 µM; in experiment [1], 46.7 µM; in experiment [2], 2.85 µM; in experiment [3], 21.5 µM; in experiment [4], 24.7 µM; in experiment [5], 32.6 µM. Besides, the TGI in experiment [6] was determined as 27.1 µM; in experiment [9], 38.3 µM; in [7], 14.9 µM.
For `C[n+]1c2ccccc2nc2c(N)cc(N)cc21`, the GI50 in [8] is > 100 µM; in [1], 2.5 µM; in experiment [2], 4.54 µM; in experiment [4], 5.43 µM; in experiment [5] it was 64.9 µM; in experiment [6], 2.56 µM. Moreover, the GI50 in [9] was 5.1 µM; in [7], 12.6 µM. Moreover, the TGI in experiment [8] was > 100 µM; in [1], > 100 µM; in experiment [2], 33.9 µM; in [4], > 100 µM; in experiment [5] it was > 100 µM; in [6], 7.09 µM. Besides, the TGI was determined as 37.3 µM in experiment [9] and 93.2 µM in experiment [7].
On to `Oc1cccc2c1NCCC2`, for which the GI50 is 4.35 µM in [8]; 0.102 µM in experiment [1]; 0.12 µM in experiment [2]; 1.12 µM in experiment [3]; 0.734 µM in experiment [4]; 1.96 µM in [5]. Further, the GI50 in experiment [6] is 0.109 µM; in experiment [7], 3.67 µM. Further, the TGI in experiment [8] was > 100 µM; in experiment [1], > 100 µM; in experiment [2], > 100 µM; in experiment [3], 5.83 µM; in [4], > 100 µM; in experiment [5], > 100 µM. Further, the TGI in experiment [6] is 1.85 µM; in experiment [7] it was > 89.7 µM.
On to `CCCC(S(=O)(=O)c1ccccc1)S(=O)(=O)c1ccccc1`, for which the TGI in experiment [8], in experiment [1], in experiment [2], in experiment [3], in [4] and in experiment [5] was > 100 µM each time. The TGI in experiment [6] and in experiment [7] was > 100 µM throughout.
`CC1=NN(c2ccccc2)C(=O)/C1=C\c1ccc([N+](=O)[O-])cc1`: the TGI is 50.8 µM in [8]; > 100 µM in [1]; 57.2 µM in [2]; > 100 µM in experiment [3]; 85.8 µM in [4]; > 100 µM in experiment [5]. Moreover, the results for the TGI in experiment [6] and in [7] were 54.5 µM and 63.2 µM, respectively.
As to `O=C(CN1N=C(c2ccc(F)cc2)CCC1=O)Nc1nc2ccccc2s1`, the GI50 was 3.39 µM in experiment [8]; 2.08 µM in experiment [1]; 2.29 µM in experiment [2]; > 100 µM in experiment [3]; 0.235 µM in experiment [4]; > 100 µM in experiment [5]. Moreover, the GI50 is > 93.2 µM in experiment [6], 50.1 µM in experiment [9] and > 100 µM in [7]. Moreover, the TGI in experiment [8] is > 92.1 µM; in [1], 4.69 µM; in experiment [2] it was 6.17 µM; in experiment [3], > 100 µM; in [4], 0.607 µM; in experiment [5], > 100 µM. Also, the TGI in experiment [6], in [9] and in experiment [7] was > 100 µM in each case.
As for `c1ccc2c(c1)CCc1c-2n[nH]c1-c1[nH]nc2c1CCc1ccccc1-2`, the TGI in [8], in [1], in experiment [3], in [4], in experiment [10] and in experiment [5] was > 100 µM each time. Also, the TGI in experiment [6] and in experiment [7] was > 100 µM in each case.
